Reference: ChEMBL document CHEMBL1149631, “Synthesis of 3,8,9-trisubstituted-1,7,9-triaza-fluorene-6-carboxylic acid derivatives as a new class of insulin secretagogues” (Bioorg Med Chem, 2007)

Experiments:
Type in all cases: functional
[1] = Effect on glucose-dependent insulin secretion activity per ug of total protein in rat RIN5F cells at 10 uM after 30 mins
[2] = Effect on glucose-dependent insulin secretion activity per ug of total protein in rat RIN5F cells at 1 uM after 30 mins
[3] = Effect on glucose-dependent insulin secretion activity per ug of total protein in rat RIN5F cells at 0.1 uM after 30 mins

Row | SMILES | Activity [1] [pg/µg/h] | Activity [2] [pg/µg/h] | Activity [3] [pg/µg/h]
1 | O=C(O)c1cc2c([nH]c3ncccc32)c(-c2ccccc2)n1 | 20.6 | 18.1 | 16.2
2 | Cn1c2ncccc2c2cc(C(=O)O)nc(C3CCCCC3)c21 | 21.4 | 18.4 | 16.1
3 | O=C(O)c1cc2c(cn1)[nH]c1ncccc12 | 18 | 16.2 | 14.1
4 | COC(=O)c1cc2c3cc(C)cnc3n(C)c2c(C)n1 | 15.9 | 15.2 | 14.8
5 | COC(=O)C1Cc2c(n(C)c3ncccc23)C(Cc2ccccc2)N1 (stereo unspecified) | 12.9 | 12.2 | 11.5
6 | COC(=O)C1Cc2c(n(C)c3ncccc23)C(C2CCCCC2)N1 (stereo unspecified) | 11.9 | 11.5 | 10.9
7 | COC(=O)c1cc2c(cn1)[nH]c1ncc(C)cc12 | 13.9 | 13.2 | 13.1
8 | COC(=O)C1Cc2c([nH]c3ncccc23)C(Cc2ccccc2)N1 (stereo unspecified) | 11.9 | 11.5 | 10.9
9 | COC(=O)c1cc2c3cc(C)cnc3n(C)c2c(C2CCCCC2)n1 | 15.9 | 15.2 | 14.8
10 | COC(=O)C1Cc2c(n(C)c3ncc(C)cc23)C(C)N1 (stereo unspecified) | 14 | 13.2 | 12.3
11 | COC(=O)c1cc2c(cn1)[nH]c1ncccc12 | 12 | 11.9 | 11
12 | COC(=O)C1Cc2c(n(C)c3ncccc23)C(c2ccccc2)N1 (stereo unspecified) | 12.2 | 11.9 | 11
13 | COC(=O)C1Cc2c([nH]c3ncccc23)CN1 (stereo unspecified) | 10.9 | 10.6 | 10.1
14 | COC(=O)C1Cc2c([nH]c3ncccc23)C(c2ccccc2)N1 (stereo unspecified) | 11.5 | 11.2 | 10.8
15 | COC(=O)C1Cc2c([nH]c3ncc(C)cc23)C(C2CCCCC2)N1 (stereo unspecified) | 11.9 | 11.5 | 10.9
16 | Cc1cnc2[nH]c3c(Cc4ccccc4)nc(C(=O)O)cc3c2c1 | 22.1 | 19.2 | 18
17 | COC(=O)C1Cc2c(n(C)c3ncccc23)CN1 (stereo unspecified) | 11.5 | 11.2 | 10.8
18 | COC(=O)C1Cc2c(n(C)c3ncc(C)cc23)C(C2CCCCC2)N1 (stereo unspecified) | 14.2 | 13.4 | 12.4
19 | Cc1nc(C(=O)O)cc2c1[nH]c1ncccc12 | 20.1 | 17.4 | 15.4

Row | SMILES | Activity [1] [pg/µg/h] | Activity [2] [pg/µg/h] | Activity [3] [pg/µg/h]
20 | COC(=O)C1Cc2c([nH]c3ncc(C)cc23)C(c2ccccc2)N1 (stereo unspecified) | 12.2 | 11.9 | 11
21 | COC(=O)C1Cc2c([nH]c3ncc(C)cc23)C(Cc2ccccc2)N1 (stereo unspecified) | 12.9 | 12.2 | 11.5
22 | COC(=O)c1cc2c([nH]c3ncccc32)c(-c2ccccc2)n1 | 12.9 | 12.6 | 12
23 | O=C(O)c1cc2c([nH]c3ncccc32)c(Cc2ccccc2)n1 | 21.5 | 18.3 | 17.1
24 | Cc1cnc2[nH]c3cnc(C(=O)O)cc3c2c1 | 19.2 | 17.3 | 15.1
25 | COC(=O)c1cc2c3cccnc3n(C)c2c(-c2ccccc2)n1 | 14.8 | 14.1 | 13.9
26 | COC(=O)C1Cc2c([nH]c3ncc(C)cc23)C(C)N1 (stereo unspecified) | 11.9 | 11.5 | 10.9
27 | COC(=O)c1cc2c([nH]c3ncc(C)cc32)c(C2CCCCC2)n1 | 14.3 | 14 | 13.5
28 | Cc1cnc2[nH]c3c(C)nc(C(=O)O)cc3c2c1 | 21.1 | 18.5 | 16.2
29 | COC(=O)c1cc2c3cccnc3n(C)c2c(C2CCCCC2)n1 | 14.2 | 13.9 | 13.4
30 | COC(=O)c1cc2c3cccnc3n(C)c2cn1 | 13.9 | 13.1 | 13
31 | COC(=O)C1Cc2c(n(C)c3ncccc23)C(C)N1 (stereo unspecified) | 11.9 | 11.5 | 10.9
32 | COC(=O)C1Cc2c(n(C)c3ncc(C)cc23)CN1 (stereo unspecified) | 14.1 | 13.1 | 12.2
33 | Cc1cnc2[nH]c3c(-c4ccccc4)nc(C(=O)O)cc3c2c1 | 21.4 | 19.3 | 17.1
34 | COC(=O)C1Cc2c([nH]c3ncccc23)C(C)N1 (stereo unspecified) | 10.9 | 10.6 | 10.1
35 | COC(=O)C1Cc2c([nH]c3ncc(C)cc23)CN1 (stereo unspecified) | 11.5 | 11.2 | 10.8
36 | Cc1cnc2c(c1)c1cc(C(=O)O)ncc1n2C | 24.2 | 20 | 17.3
37 | Cn1c2ncccc2c2cc(C(=O)O)nc(-c3ccccc3)c21 | 21.1 | 19.3 | 17.2
38 | COC(=O)c1cc2c([nH]c3ncccc32)c(Cc2ccccc2)n1 | 13.5 | 13 | 12.9

Row | SMILES | Activity [1] [pg/µg/h] | Activity [2] [pg/µg/h] | Activity [3] [pg/µg/h]
39 | COC(=O)c1cc2c([nH]c3ncc(C)cc32)c(C)n1 | 14.2 | 13.9 | 13.5
40 | Cn1c2cnc(C(=O)O)cc2c2cccnc21 | 19.1 | 17.4 | 15.2
41 | COC(=O)c1cc2c3cc(C)cnc3n(C)c2c(-c2ccccc2)n1 | 16.2 | 15.6 | 15.1
42 | Cc1cnc2c(c1)c1cc(C(=O)O)nc(C)c1n2C | 28.3 | 22 | 18.1
43 | Cc1cnc2[nH]c3c(C4CCCCC4)nc(C(=O)O)cc3c2c1 | 21.2 | 18.4 | 16.3
44 | COC(=O)c1cc2c3cc(C)cnc3n(C)c2cn1 | 15.6 | 14.9 | 14.3
45 | COC(=O)c1cc2c([nH]c3ncc(C)cc32)c(Cc2ccccc2)n1 | 15.1 | 14.8 | 14.1
46 | Cc1nc(C(=O)O)cc2c3cccnc3n(C)c12 | 21.5 | 18.1 | 16.2
47 | COC(=O)c1cc2c([nH]c3ncc(C)cc32)c(-c2ccccc2)n1 | 14.9 | 14.2 | 13.9
48 | O=C(O)c1cc2c([nH]c3ncccc32)c(C2CCCCC2)n1 | 20.4 | 17.1 | 15.5
49 | Cn1c2ncccc2c2cc(C(=O)O)nc(Cc3ccccc3)c21 | 22.2 | 19.4 | 18.5
50 | COC(=O)C1Cc2c([nH]c3ncccc23)C(C2CCCCC2)N1 (stereo unspecified) | 11 | 10.7 | 10.2
51 | COC(=O)c1cc2c3cccnc3n(C)c2c(C)n1 | 14.1 | 13.9 | 13.4
52 | COC(=O)C1Cc2c(n(C)c3ncc(C)cc23)C(c2ccccc2)N1 (stereo unspecified) | 15.2 | 14.9 | 13.5
53 | Cc1cnc2c(c1)c1cc(C(=O)O)nc(-c3ccccc3)c1n2C | 32.2 | 26 | 19.1
54 | COC(=O)c1cc2c([nH]c3ncccc32)c(C)n1 | 12.5 | 12.1 | 11
55 | COC(=O)c1cc2c3cccnc3n(C)c2c(Cc2ccccc2)n1 | 15 | 14.6 | 14
56 | Cc1cnc2c(c1)c1cc(C(=O)O)nc(C3CCCCC3)c1n2C | 28.2 | 23.1 | 18.2
57 | COC(=O)c1cc2c([nH]c3ncccc32)c(C2CCCCC2)n1 | 12.5 | 12.1 | 11.9
